# Assay results taken from US11160782B2, “Method for producing nobiletin-containing solid dispersion” (KAO CORPORATION, priority 2016, dated 2021).
# What was measured:
# [1] = Solubility in water at 25° C. of the poorly water-soluble raw material; details: raw material (poorly water-soluble substance) of the composition
# [2] = Transferability of nobiletin into blood circulation during oral administration to mice; assay type: in vivo; details: male, C57BL/6J, mouse, 200 mg/kg, plasma
# Excerpt: [Evaluation of Transferability of Nobiletin into Blood Circulation During Oral Administration to Mice]
# C57BL/6J mice (male, 6 week-old) were purchased from CLEA Japan, Inc. The mice were habituated to the environment for one week or more, and were fed to a test. Each of the test groups consisted of 8 mice, which was believed to be the minimum number required to ensure the statistical significance of the test system.
# Mice were bred in the facility for one week under ad libitum feeding of solid food (CE-s), and the test was performed using the mice. The mice were fasted for 16 hours, and blood was initially collected from the orbital sinus of each mouse under isoflurane anesthesia (heparin-treated micro hematocrit blood collection tube, manufactured by VITREX Medical A/S). Each sample solution was then administrated into the stomach of the mice at a dose of 200 mg/kg weight per mouse using a probe. […]
# The collected blood samples were centrifuged at 12,000 rpm for 10 minutes, and 30 μL of plasma in each sample was recovered into an Eppendorf tube. […] The nobiletin concentration in the plasma was measured by LC-MS/MS.
# 30 μL of acetonitrile was added to 30 μL of the recovered plasma, was stirred with a vortex mixer for 5 seconds, and was centrifuged at 12,000 rpm for 15 minutes at room temperature. […] The nobiletin concentration was then measured by LC-MS/MS.
SMILES,Solubility in water at 25° C. [1] [ppm],AUC ([2]; read-out: AUC (area under the blood concentration transition curve) (converted)) [ng·h/mL],Cmax ([2]; read-out: Cmax (maximum blood concentration of nobiletin)) [ng/mL]
"O=c1oc2c(O)c(O)cc3c(=O)oc4c(O)c(O)cc1c4c23 [Ellagic acid, Ellagic acid dihydrate]",4,,
COc1ccc([C@@H]2CC(=O)c3c(O)cc(O[C@@H]4O[C@H](CO[C@@H]5O[C@@H](C)[C@H](O)[C@@H](O)[C@H]5O)[C@@H](O)[C@H](O)[C@H]4O)cc3O2)cc1O [Hesperidin],0.5,,
"COc1ccc(-c2cc(=O)c3c(OC)c(OC)c(OC)c(OC)c3o2)cc1OC [Nobiletin, 3′,4′,5,6,7,8-hexamethoxyflavone]",1,5380,3700
